Assays:
Assay type in all cases: binding
TEAD1 YAP50-100 = TEAD1 YAP50-100 (Homo sapiens, UniProt P28347); assay: TEAD1-YAP HTRF (TR-FRET) protein-protein interaction assay; details: TEAD1, YAP peptide 50-100, HTRF; for EC50: read-out: TEAD1 YAP50-100 HTRF combined: EC50
Experimental: (§1) Purified His-tagged TEAD protein (YAP Binding Domain, amino acids 217-447) is pre-incubated with Europium labelled anti-His antibody tracer (Perkin Elmer Cat #AD0110). Small molecule Inhibitors are then incubated with the TEAD-Eu protein complex for 30 minutes to allow for binding to TEAD protein. Biotinylated YAP peptide for TEAD-YAP assays (AA's 50-100) or biotinylated TAZ peptide for TEAD-TAZ assays (AA's 13-57) that has been pre-incubated with streptavidin-xl665 acceptor (CIS-Bio Cat #610SAXAC) or is added to the compound-TEAD mix. The TEAD-YAP-inhibitor mixture is then incubated for 60 minutes at room temperature. All reactions are carried out in a polystyrene plate. After 60 minutes, the plate is read on a plate reader using TR-FRET mode with wavelengths of 665 nm/615 nm. If YAP or TAZ binds to TEAD as expected, a TR-FRET signal results from the proximity of YAP or TAZ and TEAD after binding. If an inhibitor such as peptide 17 (Selleckchem Cat #58164) interferes with YAP-TEAD or TAZ-TEAD binding, the disruption of the YAP or TAZ:TEAD interaction results in a decrease in TR-FRET signal. The potency of compounds as YAP:TEAD or TAZ:TEAD protein-protein interaction (PPi) inhibitors is determined by an IC50 or EC50 value generated using a non-linear four parameter curve fit.

TEAD2 YAP50-100 = TEAD2 YAP50-100 (Homo sapiens, UniProt Q15562); assay: TEAD2-YAP HTRF (TR-FRET) protein-protein interaction assay; details: TEAD2, YAP peptide 50-100, HTRF; for EC50: read-out: TEAD2 YAP50-100 HTRF combined: EC50
Experimental: as §1

TEAD3 YAP50-100 = TEAD3 YAP50-100 (Homo sapiens, UniProt Q99594); assay: TEAD3-YAP HTRF (TR-FRET) protein-protein interaction assay; details: TEAD3, YAP peptide 50-100, HTRF; for EC50: read-out: TEAD3 YAP50-100 HTRF combined: EC50
Experimental: as §1

TEAD4 YAP50-100 = TEAD4 YAP50-100 (Homo sapiens, UniProt Q15561); assay: TEAD4-YAP HTRF (TR-FRET) protein-protein interaction assay; details: TEAD4, YAP peptide 50-100, HTRF; for EC50: read-out: TEAD4 YAP50-100 HTRF combined: EC50
Experimental: as §1

[1] = target: TEAD1 TAZ (amino acids 13-57) (Homo sapiens, UniProt P28347); assay: TEAD1-TAZ HTRF (TR-FRET) protein-protein interaction assay; details: for TEAD1 TAZ HTRF combined: Max % Inhibition: TEAD1, TAZ peptide; for EC50: TEAD1-TAZ HTRF, TR-FRET 665 nm/615 nm, read-out: TEAD1 TAZ HTRF combined: EC50
Experimental: as §1

[2] = target: TEAD2 TAZ (amino acids 13-57) (Homo sapiens, UniProt Q15562); assay: TEAD2-TAZ HTRF (TR-FRET) protein-protein interaction assay; details: for TEAD2 TAZ HTRF combined: Max % Inhibition: TEAD2, TAZ peptide; for EC50: TEAD2-TAZ HTRF, TR-FRET 665 nm/615 nm, read-out: TEAD2 TAZ HTRF combined: EC50
Experimental: as §1

[3] = target: TEAD3 TAZ (amino acids 13-57) (Homo sapiens, UniProt Q99594); assay: TEAD3-TAZ HTRF (TR-FRET) protein-protein interaction assay; details: for TEAD3 TAZ HTRF combined: Max % Inhibition: TEAD3, TAZ peptide; for EC50: TEAD3-TAZ HTRF, TR-FRET 665 nm/615 nm, read-out: TEAD3 TAZ HTRF combined: EC50
Experimental: as §1

[4] = target: TEAD4 TAZ (amino acids 13-57) (Homo sapiens, UniProt Q15561); assay: TEAD4-TAZ HTRF (TR-FRET) protein-protein interaction assay; details: for TEAD4 TAZ HTRF combined: Max % Inhibition: TEAD4, TAZ peptide; for EC50: TEAD4-TAZ HTRF, TR-FRET 665 nm/615 nm, read-out: TEAD4 TAZ HTRF combined: EC50
Experimental: as §1

Chain of TEAD3 YAP50-100 (Q99594 173-435 limits assumed): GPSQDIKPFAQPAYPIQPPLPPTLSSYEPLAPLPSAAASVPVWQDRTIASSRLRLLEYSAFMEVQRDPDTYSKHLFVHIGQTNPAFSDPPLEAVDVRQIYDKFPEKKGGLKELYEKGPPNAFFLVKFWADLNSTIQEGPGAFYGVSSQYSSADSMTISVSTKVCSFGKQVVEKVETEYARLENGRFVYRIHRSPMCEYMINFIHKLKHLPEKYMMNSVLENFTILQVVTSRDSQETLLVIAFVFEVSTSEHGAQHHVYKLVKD
Chain of TEAD3 TAZ (amino acids 13-57) (Q99594 173-435 limits assumed): as above
Chain of TEAD1 YAP50-100 (P28347 167-426 limits assumed): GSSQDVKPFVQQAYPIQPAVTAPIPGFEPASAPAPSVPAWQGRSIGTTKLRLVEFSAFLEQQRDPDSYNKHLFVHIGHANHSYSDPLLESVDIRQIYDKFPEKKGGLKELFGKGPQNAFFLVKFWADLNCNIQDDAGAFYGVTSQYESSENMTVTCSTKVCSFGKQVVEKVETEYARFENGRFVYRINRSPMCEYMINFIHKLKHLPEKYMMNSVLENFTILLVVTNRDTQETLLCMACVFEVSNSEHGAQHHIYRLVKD
Chain of TEAD1 TAZ (amino acids 13-57) (P28347 167-426 limits assumed): as above
Chain of TEAD2 TAZ (amino acids 13-57) (Q15562 217-447): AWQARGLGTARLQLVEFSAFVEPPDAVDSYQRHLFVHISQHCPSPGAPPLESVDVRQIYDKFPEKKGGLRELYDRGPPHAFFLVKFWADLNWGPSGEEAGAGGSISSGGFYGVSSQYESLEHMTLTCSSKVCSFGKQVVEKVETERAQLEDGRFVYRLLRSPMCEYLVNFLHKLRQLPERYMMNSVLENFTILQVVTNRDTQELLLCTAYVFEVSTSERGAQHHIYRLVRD
Chain of TEAD2 YAP50-100 (Q15562 217-447): as above
Chain of TEAD4 TAZ (amino acids 13-57) (Q15561 217-434 limits assumed): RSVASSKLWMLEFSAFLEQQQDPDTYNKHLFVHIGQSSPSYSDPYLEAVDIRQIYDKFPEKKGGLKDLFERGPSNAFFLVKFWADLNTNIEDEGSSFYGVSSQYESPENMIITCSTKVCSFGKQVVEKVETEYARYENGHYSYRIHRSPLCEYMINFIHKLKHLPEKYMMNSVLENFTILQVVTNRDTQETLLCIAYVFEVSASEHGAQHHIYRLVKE
Chain of TEAD4 YAP50-100 (Q15561 217-434 limits assumed): as above

SMILES	TEAD1 YAP50-100 HTRF combined: Max % Inhibition (TEAD1 YAP50-100) [%]	EC50 (TEAD1 YAP50-100) [µM]	TEAD2 YAP50-100 HTRF combined: Max % Inhibition (TEAD2 YAP50-100) [%]	EC50 (TEAD2 YAP50-100) [µM]	TEAD3 YAP50-100 HTRF combined: Max % Inhibition (TEAD3 YAP50-100) [%]	EC50 (TEAD3 YAP50-100) [µM]	TEAD4 YAP50-100 HTRF combined: Max % Inhibition (TEAD4 YAP50-100) [%]	EC50 (TEAD4 YAP50-100) [µM]	TEAD1 TAZ HTRF combined: Max % Inhibition [1] [%]	EC50 [1] [µM]	TEAD2 TAZ HTRF combined: Max % Inhibition [2] [%]	EC50 [2] [µM]	TEAD3 TAZ HTRF combined: Max % Inhibition [3] [%]	EC50 [3] [µM]	TEAD4 TAZ HTRF combined: Max % Inhibition [4] [%]	EC50 [4] [µM]
COc1ccnc(-c2nn3c(=O)cc(-c4ccc(C5CCCCC5)cc4)[nH]c3c2C(=O)N2CC(CF)C2)n1 [Compound 14, 5-(4-Cyclohexylphenyl)-3-(3-(fluoromethyl)azetidine-1-carbonyl)-2-(4-methoxypyrimidin-2-yl)pyrazolo[1,5-a]pyrimidin-7(4H)-one]	73.0	0.03	62.5	0.01	61.0	0.09	50.0	0.06	74.0	0.06	67.5	0.01	52.5	0.08	53.5	0.05
Cc1nccnc1-c1nn2c(=O)cc(-c3ccc(O[C@@H](c4ccccc4)C(F)(F)F)cc3)[nH]c2c1C(=O)N1CC(CF)C1 [Compound 67, (S)-3-(3-(Fluoromethyl)azetidine-1-carbonyl)-2-(3-methylpyrazin-2-yl)-5-(4-(2,2,2-trifluoro-1-phenylethoxy)phenyl)pyrazolo[1,5-a]pyrimidin-7(4H)-one]	69.0	0.19	92.5	0.05	79.0	0.18	72.5	4.25	65.0	0.22	89.0	0.05	71.0	0.2	71.5	4
Cc1nccnc1-c1nn2c(=O)cc(-c3ccc(C(F)(F)C4CCCC4)cc3)[nH]c2c1C(=O)N1CC(CF)C1 [Compound 56, 5-(4-(Cyclopentyldifluoromethyl)phenyl)-3-(3-(fluoromethyl)azetidine-1-carbonyl)-2-(3-methylpyrazin-2-yl)pyrazolo[1,5-a]pyrimidin-7(4H)-one]	57.0	0.06	61.0	0.01	49.5	0.1	33.0	0.03	57.0	0.07	60.0	0.01	43.0	0.11	35.0	0.02
O=C(c1c(-c2cccnc2)nn2c(=O)cc(-c3ccc(C4CCCCC4)cc3)[nH]c12)N1CC(CF)C1 [Compound 37, 5-(4-Cyclohexylphenyl)-3-(3-(fluoromethyl)azetidine-1-carbonyl)-2-(pyridin-3-yl)pyrazolo[1,5-a]pyrimidin-7(4H)-one]	66.0	0.1	54.5	0.02	64.0	0.15	27.5	0.22	50.0	0.12	50.0	0.02	55.0	0.15	16.5	0.16
